Experimental data: article PMC7321408, “One-Pot Multicomponent Synthesis and Bioevaluation of Tetrahydroquinoline Derivatives as Potential Antioxidants, α-Amylase Enzyme Inhibitors, Anti-Cancerous and Anti-Inflammatory Agents” (Molecules, 2020)
“And” between values parts separate entries of the source, which are not always exact repeats. Equal entries are not always repeated.

How the values were obtained:
[1] = test system: carrageenan-induced paw edema; assay: Carrageenan-induced paw edema (in vivo anti-inflammatory activity); parameters: species or system BALB/C albino mice; unit not given beside the values; conditions: 10 mg/kg, mice, n = 5
Description: At 7–8 weeks old, male BALB/C albino mice (29–35 g), were purchased from The National Institute of Health (NIH), Islamabad, Pakistan. Five animals were housed per group and placed in a controlled temperature and humidity-controlled room (22 °C and 66 ± 5%, respectively) in a 12 h light–dark cycle and provided with water and food ad libitum. Ethical approval was taken from the bio-ethical committee of Quaid-I-Azam University (Approval No. BEC-FBS-QAU2018-119) and all protocols were conducted following the Ethical Guide to the Code of Practice for the Housing and Care of Animals Act 1986 (ARRIVE (Animal Research: Reporting In Vivo Experiments) guidelines). The anti-inflammatory activity of the synthesized compounds was evaluated by using the carrageenan-induced rat paw edema assay. To determine the dose response of tetrahydroquinoline derivatives, animals were first given a dose of 0.1, 1 and 10 mg/kg against 100 µL carrageenan (1% solution in normal saline)/paw. Treatment was given 60 min before carrageenan injection. Readings were taken at 4 h post carrageenan injection. The in vivo anti-inflammatory activity was performed following the procedure described by Koksal, et al. in 2017. Paw edema was induced by injecting 100 µL of 1% sterile carrageenan solution into the right hind paw of mice. Synthesized compounds (10 mg/kg), vehicle (saline with 2% DMSO) and drug (acetylsalicylic acid, ASA 10 mg/kg) were administered to the mice orally by gastric intubation 60 min before injecting carrageenan into the right hind paw. The decrease in edema was measured by vernier calipers every 2 h.

[2] = test system: raw macrophages; assay: MTT cytotoxicity against raw macrophages; format: cell-based, albino rats; conditions: mean ± SEM, n = 3
How it was run: (§1)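 Peritoneal macrophages from albino rats were treated for 24 h at 37 °C, 5% CO2 with test compounds at 100, 50, 10 and 1 µM or vehicle, from DMSO stocks. MTT was then added for 2 h, formazan dissolved in DMSO and absorbance read at 570 nm. % viability = blank-corrected sample over blank-corrected control ×100.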

[3] = MTT cytotoxicity against raw macrophages; format: cell-based, albino rats; conditions: rat; for viability at 24 h, 1 µM / viability at 24 h, 10 µM / viability at 24 h, 50 µM / viability at 24 h, 100 µM: peritoneal macrophages (raw macrophages), raw macrophages, MTT, read-out: % Cell Viability; for IC50 at 24 h: primary peritoneal macrophages, mean ± SEM, n = 3
How it was run: as §1

[4] = test system: brine shrimp nauplii; assay: Brine shrimp lethality bioassay; format: in vivo; conditions: 24 h, n = 3
How it was run: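 Ten hatched nauplii per well in artificial seawater were exposed to test compounds at 400, 200, 100 and 50 µg/mL under a lamp. Survivors counted after 24 h; percentage mortality calculated; triplicate.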

[5] = test system: α-amylase enzyme; assay: α-Amylase enzyme inhibitory assay; format: biochemical; conditions: 200 µg/mL
Description: An in vitro α-amylase enzyme inhibitory assay was performed by the standard protocol. Four milligrams per 1 mL of sample was prepared in DMSO. In each well of a 96-well plate, synthetic compounds were added to a final concentration of 200 µg/mL. To this, 15 μL phosphate buffer, […] α-amylase enzyme and 40 μL starch solution were added stepwise. The microplate was incubated at 50 °C for 30 min. […] The formula used to calculate the percent enzyme inhibition is:% Enzyme inhibition = [(As − An) ÷ (Ab − An] × 100
As = sample’s absorbance; An = negative’s absorbance; Ab = blank’s absorbance

[6] = Phosphomolybdenum-based total antioxidant capacity (TAC)
Description: In the presence of an antioxidant, the phosphomolybdate ion gets reduced and a green phosphate–molybdate complex is formed, which is analyzed spectrophotometrically.
The total antioxidant capacity was determined by using the phosphomolybdenum-based method. The method is based on the reduction of Mo (VI) to Mo (V), leading to the formation of a green-colored phosphate–molybdenum complex that gives absorption at 630 nm. In 96-well plates, 20 µL of the sample was added with 180 µL TAC reagents in it and incubated at 95 °C for 90 min in a water bath and cooled at room temperature. The results were calculated as µg AAE/mg.

Structure (SMILES) | Paw thickness ([1]; 0 h after carrageenan injection) | Paw thickness ([1]; 2 h after carrageenan injection) | Paw thickness ([1]; 4 h after carrageenan injection) | Paw thickness ([1]; 6 h after carrageenan injection) | IC50 [2] | viability at 24 h, 1 µM ([3]; albino) | viability at 24 h, 10 µM ([3]; albino) | viability at 24 h, 50 µM ([3]; albino) | viability at 24 h, 100 µM ([3]; albino) | IC50 at 24 h ([3]; albino) | LD50 ± SEM (brine shrimp lethality) [4] | % inhibition of α-amylase enzyme [5] | Total antioxidant capacity (TAC) [6] | IC50 at 24 h [3]
c1ccc2c(c1)CCCN2CN1CCCCC1 [SF1, 1-(Piperidine-1-ylmethyl) 1,2,3,4-tetrahahydroquinoline] | 2.06 ± 0.07 | 2.13 ± 0.03 | 2.18 ± 0.06 | 2.25 ± 0.05 | 6.23 ± 0.01 µM | 58 ± 0.76% | 48 ± 1.34% | 47 ± 0.84% | 44.7 ± 0.5% | 6.232 ± 0.01 µM | 120 ± 2.3 µg/mL and 120.8 ± 2.3 µg/mL | – | – | –
CN1CCN(CN2CCCc3ccccc32)CC1 [SF5] | – | – | – | – | – | 98 ± 1.01% | 74 ± 0.42% | 67 ± 0.84% | 60 ± 1.2% | 6.181 ± 0.05 µM | 94 ± 1.06 µg/mL | 97.37% | 285.46 ± 2.1 µg/AAE | –
c1ccc(N(CN2CCCc3ccccc32)c2ccccc2)cc1 [SF7, N-((3,4-dihydroquinolin-1(2H)-yl)methyl)-N-phenylaniline] | – | – | – | – | – | 96 ± 0.89% | 95 ± 0.96% | 84 ± 0.77% | 58 ± 0.83% | 18.64 ± 0.13 µM | 100.8 ± 1.14 µg/mL | 88.67% | 242.77 ± 2.31 µg/AAE | 18.6 ± 0.13 µM
